The test concerns the target T1, androgen receptor (AR) splicing variant AR-v7 (Homo sapiens, UniProt P10275).
T1 construct: The degradation activity of compounds on AR-v7 in 22RV1 cells; host or cells: 22RV1 cells
T1 sequence (P10275 1-644 isoform P10275-3): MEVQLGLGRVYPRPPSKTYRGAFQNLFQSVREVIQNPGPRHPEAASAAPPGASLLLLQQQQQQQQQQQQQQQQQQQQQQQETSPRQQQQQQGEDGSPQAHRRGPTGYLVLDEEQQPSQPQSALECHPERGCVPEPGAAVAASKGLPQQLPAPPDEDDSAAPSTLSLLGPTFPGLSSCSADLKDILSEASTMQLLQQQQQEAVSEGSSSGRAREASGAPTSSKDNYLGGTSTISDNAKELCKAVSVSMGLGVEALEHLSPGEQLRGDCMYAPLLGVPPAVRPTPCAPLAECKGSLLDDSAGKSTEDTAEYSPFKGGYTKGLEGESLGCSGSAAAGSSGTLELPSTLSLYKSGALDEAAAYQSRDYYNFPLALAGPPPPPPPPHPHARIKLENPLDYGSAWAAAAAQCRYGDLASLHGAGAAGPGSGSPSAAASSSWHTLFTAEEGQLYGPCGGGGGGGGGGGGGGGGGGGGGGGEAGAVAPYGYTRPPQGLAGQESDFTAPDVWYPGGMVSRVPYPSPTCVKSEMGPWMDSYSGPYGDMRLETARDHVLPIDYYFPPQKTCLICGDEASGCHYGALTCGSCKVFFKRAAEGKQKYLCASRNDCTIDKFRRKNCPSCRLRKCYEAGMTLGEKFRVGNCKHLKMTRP
Put plainly: Degradation activity on androgen receptor splicing variant AR-v7 in 22RV1 cells (ELISA). The test is classed as cell-based. Particulars: AR-v7 degradation in 22RV1 cells, 48 h. A general note: In an ELISA, binding on a coated surface is turned into a signal by an enzyme label.

DC50 data for 27 compounds are collected here from US20250051347A1, “BIFUNCTIONAL CHIMERIC HETEROCYCLIC COMPOUND AND USE THEREOF AS ANDROGEN RECEPTOR DEGRADER” (Hinova Pharmaceuticals, Inc., priority 2021, published 2025).

By DC50 is commonly meant the concentration at which degradation of the target reaches its halfway point. Read a low DC50 as degradation at low concentration. Compound `CC(C)(c1ccc(Oc2ccc(-n3cccn3)nc2)cc1)c1ccc(O[C@H]2C[C@@H](Nc3ccc4c(c3)C(=O)N(C3CCC(=O)NC3=O)C4=O)C2)cc1` (stereo partly drawn) [Example 542] yielded a DC50 (class symbols) of 11 to 100 nM.
For the setting “class symbols”, `Cc1nc(-c2ccc(Oc3ccc(C(C)(C)c4ccc(OC5CC(Nc6ccc7c(c6)C(=O)N(C6CCC(=O)NC6=O)C7=O)C5)cc4)cc3)cn2)no1` (stereo not drawn) [Example 543, 2-(2,6-dioxopiperidin-3-yl)-5-(1s,3s)-3-(4-(2-(4-(6-(5-methyl-1,2,4-oxadiazol-3-yl)pyridin-3-yl)oxy)phenyl)propan-2-yl)phenoxy)cyclobutyl)amino) isoindolin-1,3-dione] registered a DC50 of 11 to 100 nM.
For `CC(C)(c1ccc(OCc2nccc(N3CC4(COC4)C3)n2)cc1)c1ccc(O[C@H]2C[C@@H](Nc3ccc4c(c3)C(=O)N(C3CCC(=O)NC3=O)C4=O)C2)cc1` (stereo partly drawn) [Example 545], for the setting “class symbols”, the DC50 lay in the range of 11 to 100 nM.
In the case of `Cc1nc(-c2ccc(Oc3ccc(C(C)(C)c4ccc(O[C@H]5C[C@H](Nc6ccc7c(c6)C(=O)N(C6CCC(=O)NC6=O)C7=O)C5)cc4)cc3)nc2)no1` (stereo partly drawn) [Example 546], where the note is “class symbols”, the half-maximal degradation concentration (DC50) is 11 to 100 nM.
`COc1cnc(Oc2ccc(C(C)(C)c3ccc(O[C@H]4C[C@H](Nc5ccc6c(c5)C(=O)N(C5CCC(=O)NC5=O)C6=O)C4)cc3)cc2)cn1` (stereo partly drawn) [Example 552, 2-(2,6-dioxopiperidin-3-yl)-5-(((1r,3r)-3-(4-(4-((5-methoxypyrazin-2-yl)oxy)phenyl)propan-2-yl)phenoxy)amino)isoindolin-1,3-dione] yielded a DC50 (class symbols) of 11 to 100 nM.
For the setting “class symbols”, `CC(C)(c1ccc(OCCCNc2cccc3c2C(=O)N(C2CCC(=O)NC2=O)C3=O)cc1)c1ccc(OCc2ccnc(N3CCC3)n2)cc1` (stereo not drawn) [Example 554, 4-((3-(4-(2-(4-((2-(azetidin-1-yl)pyrimidin-4-yl)methoxy)phenyl)propan-2-yl)phenoxy)propyl)amino)-2-(2,6-dioxopiperidin-3-yl)isoindolin-1,3-dione] came in with a DC50 of 101 to 1000 nM.
In the case of `CC(C)(c1ccc(OCCCNc2cccc3c2C(=O)N(C2CCC(=O)NC2=O)C3=O)cc1)c1ccc(OCc2ccnc(N3CCCCC3)n2)cc1` (stereo not drawn) [Example 555], under “class symbols”, the 50% degradation concentration (DC50) lay within 101 to 1000 nM.
Consider `CC(=O)c1nccc(COc2ccc(C(C)(C)c3ccc(OC4CCN(c5ccc6c(c5)C(=O)N(C5CCC(=O)NC5=O)C6=O)CC4)cc3)cc2)n1` (stereo not drawn) [Example 557], for which the 50% degradation concentration (DC50) (numeric values) was over 10000 nM.
Regarding `CC(=O)c1nccc(COc2ccc(C(C)(C)c3ccc(N4CC5(CCN(c6ccc7c(c6)C(=O)N(C6CCC(=O)NC6=O)C7=O)CC5)C4)cc3)cc2)n1` (stereo not drawn) [Example 559], the 50% degradation concentration (DC50) (class symbols) was 1000 to 5000 nM.
`CC(=O)c1nccc(COc2ccc(C(C)(C)c3ccc(N4CCC5(CCN(c6ccc7c(c6)C(=O)N(C6CCC(=O)NC6=O)C7=O)C5)C4)cc3)cc2)n1` (stereo not drawn) [Example 560] registered a half-maximal degradation concentration (DC50) (class symbols) of 1000 to 5000 nM.
On to `CC(=O)c1nccc(COc2ccc(C(C)(C)c3ccc(OC4CC5(C4)CN(c4ccc6c(c4)C(=O)N(C4CCC(=O)NC4=O)C6=O)C5)cc3)cc2)n1` (stereo not drawn) [Example 561], for which the 50% degradation concentration (DC50) (class symbols) is 11 to 100 nM.
In turn, `CC(=O)c1nccc(COc2ccc(C(C)(C)c3ccc(OC4CC5(CCN(c6ccc7c(c6)C(=O)N(C6CCC(=O)NC6=O)C7=O)C5)C4)cc3)cc2)n1` (stereo not drawn) [Example 562] displayed a DC50 (class symbols) of 1000 to 5000 nM.
As to `CC(C)(c1ccc(OCc2ccnc(N3CC4(COC4)C3)n2)cc1)c1ccc(OC2CCC(Nc3ccc4c(c3)C(=O)N(C3CCC(=O)NC3=O)C4=O)C2)cc1` (stereo not drawn) [Example 563, 5-((3-(4-(2-(4-((2-(2-oxa-6-azaspiro[3.3]heptan-6-yl)pyrimidin-4-yl)methoxy)phenyl)propan-2-yl)phenoxy)cyclopentyl)amino)-2-(2,6-dioxopiperidin-3-yl)isoindolin-1,3-dione], the 50% degradation concentration (DC50) (class symbols) was 11 to 100 nM.
Still for that read-out and setting: with `CC(C)(c1ccc(OCc2ccnc(N3CC4(COC4)C3)n2)cc1)c1ccc(OC[C@H]2CCCN2Cc2ccc3c(c2)C(=O)N(C2CCC(=O)NC2=O)C3=O)cc1` (stereo partly drawn) [Example 565] the figure was 1000 to 5000 nM.
`CC(C)(c1ccc(OCc2ccnc(N3CC4(COC4)C3)n2)cc1)c1ccc(OC[C@@H]2CCN2Cc2ccc3c(c2)C(=O)N(C2CCC(=O)NC2=O)C3=O)cc1` (stereo partly drawn) [Example 566] yielded a DC50 (class symbols) of 1000 to 5000 nM.
Same read-out and setting: under `CC(C)(c1ccc(OCc2ccnc(N3CC4(COC4)C3)n2)cc1)c1ccc(OC2CC3(CC(Nc4ccc5c(c4)C(=O)N(C4CCC(=O)NC4=O)C5=O)C3)C2)cc1` (stereo not drawn) [Example 567, 5-((6-(4-(2-(4-((2-(2-oxa-6-azaspiro[3.3]heptan-6-yl)pyrimidin-4-yl)methoxy)phenyl)propan-2-yl)phenoxy)spiro[3.3]heptan-2-yl)amino)-2-(2,6-dioxopiperidin-3-yl)isoindolin-1,3-dione] stands 101 to 1000 nM; under `CC(C)(c1ccc(OCC(=O)Nc2ccc3c(c2)C(=O)N(C2CCC(=O)NC2=O)C3=O)cc1)c1ccc(OCc2ccnc(N3CC4(COC4)C3)n2)cc1` (stereo not drawn) [Example 568], 11 to 100 nM.
In turn, `CC(C)(c1ccc(OCc2ccnc(N3CC4(COC4)C3)n2)cc1)c1ccc(OC2CCCCC2Nc2ccc3c(c2)C(=O)N(C2CCC(=O)NC2=O)C3=O)cc1` (stereo not drawn) [Example 569, 5-((2-(4-(2-(4-((2-(2-oxa-6-azaspiro[3.3]heptan-6-yl)pyrimidin-4-yl)methoxy)phenyl)propan-2-yl)phenoxy)cyclohexyl)amino)-2-(2,6-dioxopiperidin-3-yl)isoindolin-1,3-dione] gave a half-maximal degradation concentration (DC50) (class symbols) of 1000 to 5000 nM.
In turn, `CC(C)(c1ccc(OCc2ccnc(N3CC4(COC4)C3)n2)cc1)c1ccc(N2CC(CNc3ccc4c(c3)C(=O)N(C3CCC(=O)NC3=O)C4=O)C2)cc1` (stereo not drawn) [Example 570] yielded a DC50 (class symbols) of 101 to 1000 nM.
On the same count and under the same terms, with `CC(C)(c1ccc(Oc2cnc(N3CC4(COC4)C3)cn2)cc1)c1ccc(O[C@H]2C[C@H](Nc3ccc4c(c3)C(=O)N(C3CCC(=O)NC3=O)C4=O)C2)cc1` (stereo partly drawn) [Example 573] the figure was 11 to 100 nM; with `CC(C)(c1ccc(Oc2ncnc(N3CC(N4CCC4)C3)c2F)cc1)c1ccc(O[C@H]2C[C@@H](Nc3ccc4c(c3)C(=O)N(C3CCC(=O)NC3=O)C4=O)C2)cc1` (stereo partly drawn) [Example 575], 11 to 100 nM; with `CCN1CC(Oc2ncnc(Oc3ccc(C(C)(C)c4ccc(O[C@H]5C[C@@H](Nc6ccc7c(c6)C(=O)N(C6CCC(=O)NC6=O)C7=O)C5)cc4)cc3)c2F)C1` (stereo partly drawn) [Example 576], 11 to 100 nM.
For the compound `CC(C)(c1ccc(Oc2cc(-n3nccn3)ncn2)cc1)c1ccc(O[C@H]2C[C@@H](Nc3ccc4c(c3)C(=O)N(C3CCC(=O)NC3=O)C4=O)C2)cc1` (stereo partly drawn) [Example 577], the 50% degradation concentration (DC50) (class symbols) lay within 11 to 100 nM.
In turn, `Cc1nc(-c2cncc(Oc3ccc(C(C)(C)c4ccc(O[C@H]5C[C@H](Nc6ccc7c(c6)C(=O)N(C6CCC(=O)NC6=O)C7=O)C5)cc4)cc3)n2)no1` (stereo partly drawn) [Example 585] had a DC50 (class symbols) of 11 to 100 nM.
Where the note is “class symbols”, `Cc1nc(-c2cnc(Oc3ccc(C(C)(C)c4ccc(O[C@H]5C[C@H](Nc6ccc7c(c6)C(=O)N(C6CCC(=O)NC6=O)C7=O)C5)cc4)cc3)cn2)no1` (stereo partly drawn) [Example 586] registered a 50% degradation concentration (DC50) of 11 to 100 nM.
Compound `Cc1nc(-c2ccc(Oc3ccc(C(C)(C)c4ccc(O[C@H]5C[C@@H](Nc6ccc7c(c6)C(=O)N(C6CCC(=O)NC6=O)C7=O)C5)cc4)cc3)cn2)no1` (stereo partly drawn) [Example 587] registered a half-maximal degradation concentration (DC50) (class symbols) of 11 to 100 nM.
For the compound `Cc1nnc(-c2cc(Oc3ccc(C(C)(C)c4ccc(O[C@H]5C[C@H](Nc6ccc7c(c6)C(=O)N(C6CCC(=O)NC6=O)C7=O)C5)cc4)cc3)ncn2)o1` (stereo partly drawn) [Example 590], where the note is “class symbols”, the DC50 is 11 to 100 nM.
